Data on two molecules can be found in patent US20260167926A1, “SPINAL CORD INJURY TREATMENT NEUROSPHERE” (KEIO UNIVERSITY, priority 2019, published 2026).

Test [1] concerns human iPS cell-derived neurospheres. Nature of the test: Neurite length after differentiation of neurospheres into neurons. Format: cell-based. To be noted: neurospheres cultured one day with inhibitor, then differentiated; 7th and 14th day; 201B7 and 414C2; compared to the untreated group. On the procedure:
Specifically, in an in vitro experimental system, human iPS cell-derived neurospheres were treated with a γ-secretase inhibitor and a p38 MAPK inhibitor to induce differentiation into neurons. Subsequently, the length of the neurite was measured and evaluated.
DAPT was used as the γ-secretase inhibitor. In addition, SB203580 (CAS Number: 152121-47-6) was used as the p38 MAPK inhibitor. First, human iPS cell-derived neurospheres were cultured for one day in the presence of the γ-secretase inhibitor alone, in the presence of the p38 MAPK inhibitor alone, or in the presence of the γ-secretase inhibitor and the p38 MAPK inhibitor.
Subsequently, various cells were seeded on a poly-L-ornithine/fibronectin-coated 48-well chamber slide (manufactured by Costar Corporation) at a cell density of 1×10^5 cells/mL, and the cells were cultured in a growth factor-free medium at in a 95% air environment at 37° C. and 5% CO2 for 14 days and were differentiated into neurons. Subsequently, on the 7th day and the 14th day after the initiation of differentiation induction, the cells were fixed with 4% paraformaldehyde in 0.1 M PBS, and the length of the neurite was measured.
FIG. 13A is a graph showing the results for neurons derived from 201B7 cells (n=5). In addition, FIG. 13B is a graph showing the results for neurons derived from 414C2 cells (n=5).

The subject of test [2] is p38 MAPK. Nature of the test: Immunostaining of phosphorylated p38 MAPK in neurons derived from 201B7 neurospheres. Format: cell-based, human. To be noted: 201B7 neurospheres cultured one day at final concentration of 10 μM, differentiated 14 days. On the procedure:
Phosphorylation of p38 MAPK in human iPS cell-derived neurospheres treated with a γ-secretase inhibitor was examined.
Specifically, neurospheres derived from 201B7 cells, which are cells of a human iPS cell strain, were cultured for one day in the presence of a secretase inhibitor at a final concentration of 10 μM. Subsequently, the neurospheres were cultured in a growth factor-free medium in a 95% air environment at 37° C. and 5% CO2 for 14 days and were differentiated into nerurons. Subsequently, on the 14th day after the initiation of differentiation induction, the cells were fixed with 4% paraformaldehyde in 0.1 M PBS and observed. DAPT was used as the γ-secretase inhibitor. Immunostaining of phosphorylated p38 MAPK and βIII-tubulin was performed. In addition, Hoechst 33342 (CAS Number: 23491-52-3) was used to stain the cell nuclei.
FIG. 26 is representative microscopic images showing the results of immunostaining. In FIG. 26, “Pp38” represents phosphorylated p38 MAPK, and “Merge” indicates the results of superimposing microscopic images. The scale bar is 20 μm.

Test [3] relates to p38 MAPK. The experiment in a line: Immunostaining of p38 MAPK, phosphorylated p38 MAPK and βIII-tubulin in differentiated cells. It counts as cell-based, human. As to conditions: 14 days after initiation of differentiation induction. On the procedure: Immunostaining of p38 MAPK, phosphorylated p38 MAPK, and βIII-tubulin was performed using cells obtained 14 days after the initiation of differentiation induction. In addition, Hoechst 33342 (CAS Number: 23491-52-3) was used to stain the cell nuclei.
FIG. 14A and FIG. 14B are representative microscopic images showing the results of immunostaining of the cells in the GSI (+) group. In FIG. 14A and FIG. 14B, “Pp38” indicates phosphorylated p38 MAPK, and “Merge” indicates the results of superimposing microscopic images. The scale bar is 20μm.

Take `C[S+]([O-])c1ccc(-c2nc(-c3ccncc3)c(-c3ccc(F)cc3)[nH]2)cc1` (centres unmarked) [p38 MAPK inhibitor, SB203580]: in test [1], the “neurite outgrowth (length of the neurite)” value is reported as “significantly decreased”.

As to `C[C@H](NC(=O)Cc1cc(F)cc(F)c1)C(=O)N[C@H](C(=O)OC(C)(C)C)c1ccccc1` [γ-secretase inhibitor, DAPT], the “phosphorylation of p38 MAPK in neurons derived from the neurospheres” value in test [2] was “enhanced”. For the same molecule, in test [3], the “localization of p38-positive region relative to βIII-tubulin-positive neurons” value is reported as “co-localized” and the “localization of phosphorylated p38-positive region” value was “in the nucleus”. In test [1], the “neurite outgrowth (length of the neurite)” value is “significantly large”.
